Source: patent publication US20120010242A1 (ALKERSTRAAT 30 A, priority 2009, published 2012)

Experiments:
[1] = target: D3 dopamine receptor (Homo sapiens, UniProt P35462); test: pKi for dopamine receptor D3 (Table 1); assay type: binding
[2] = target: D1 dopamine receptor (Homo sapiens, UniProt P21728); test: pKi for dopamine receptor D1 (Table 1); assay type: binding
[3] = target: T1, D4 receptor (Homo sapiens, UniProt P21917); test: pKi for dopamine receptor D4 (Table 1); assay type: binding
T1 sequence (P21917 1-419): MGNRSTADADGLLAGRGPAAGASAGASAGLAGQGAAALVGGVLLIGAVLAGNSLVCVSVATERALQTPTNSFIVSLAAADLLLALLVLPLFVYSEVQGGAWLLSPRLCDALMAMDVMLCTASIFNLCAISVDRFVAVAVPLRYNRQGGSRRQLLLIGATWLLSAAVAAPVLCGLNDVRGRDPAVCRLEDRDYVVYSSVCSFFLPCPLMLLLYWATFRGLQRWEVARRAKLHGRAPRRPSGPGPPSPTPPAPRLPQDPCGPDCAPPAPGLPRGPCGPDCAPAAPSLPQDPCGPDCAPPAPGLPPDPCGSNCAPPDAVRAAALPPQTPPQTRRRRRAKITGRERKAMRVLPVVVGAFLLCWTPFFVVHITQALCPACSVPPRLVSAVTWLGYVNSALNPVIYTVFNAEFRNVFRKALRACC

[4] = target: T2, 5-HT1A receptor (Homo sapiens, UniProt P08908); test: pKi for 5HT1A receptor (Table 1); assay type: binding
T2 sequence (P08908 1-422): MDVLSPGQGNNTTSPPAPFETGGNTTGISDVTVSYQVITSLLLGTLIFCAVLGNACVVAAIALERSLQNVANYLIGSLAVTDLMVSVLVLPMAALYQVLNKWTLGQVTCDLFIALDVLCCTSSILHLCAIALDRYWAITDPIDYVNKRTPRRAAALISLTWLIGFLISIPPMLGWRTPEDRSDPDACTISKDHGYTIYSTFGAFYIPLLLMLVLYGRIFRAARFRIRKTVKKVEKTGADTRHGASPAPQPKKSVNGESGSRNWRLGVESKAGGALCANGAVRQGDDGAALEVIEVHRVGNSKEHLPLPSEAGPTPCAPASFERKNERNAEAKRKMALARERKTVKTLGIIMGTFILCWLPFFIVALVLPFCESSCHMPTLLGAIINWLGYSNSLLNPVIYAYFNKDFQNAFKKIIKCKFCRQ

[5] = target: T3, 5-HT2C receptor (Homo sapiens, UniProt P28335); test: pKi for 5HT2C receptor (Table 1); assay type: binding
T3 sequence (P28335 33-458): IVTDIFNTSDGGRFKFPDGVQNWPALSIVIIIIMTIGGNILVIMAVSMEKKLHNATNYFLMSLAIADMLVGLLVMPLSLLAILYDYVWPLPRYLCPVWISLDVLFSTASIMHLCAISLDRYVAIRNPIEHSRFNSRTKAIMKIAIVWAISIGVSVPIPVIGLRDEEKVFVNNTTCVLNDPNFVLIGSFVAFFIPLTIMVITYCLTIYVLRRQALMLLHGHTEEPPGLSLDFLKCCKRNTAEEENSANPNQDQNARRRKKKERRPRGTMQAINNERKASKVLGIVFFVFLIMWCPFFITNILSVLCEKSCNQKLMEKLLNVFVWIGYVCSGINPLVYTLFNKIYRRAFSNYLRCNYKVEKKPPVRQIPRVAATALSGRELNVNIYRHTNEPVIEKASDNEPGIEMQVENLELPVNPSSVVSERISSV

[6] = target: T4, adrenergic receptor Alpha 1A (Homo sapiens, UniProt P35348); test: pKi for adrenergic receptor Alpha1A (Table 1); assay type: binding
T4 sequence (P35348 1-466): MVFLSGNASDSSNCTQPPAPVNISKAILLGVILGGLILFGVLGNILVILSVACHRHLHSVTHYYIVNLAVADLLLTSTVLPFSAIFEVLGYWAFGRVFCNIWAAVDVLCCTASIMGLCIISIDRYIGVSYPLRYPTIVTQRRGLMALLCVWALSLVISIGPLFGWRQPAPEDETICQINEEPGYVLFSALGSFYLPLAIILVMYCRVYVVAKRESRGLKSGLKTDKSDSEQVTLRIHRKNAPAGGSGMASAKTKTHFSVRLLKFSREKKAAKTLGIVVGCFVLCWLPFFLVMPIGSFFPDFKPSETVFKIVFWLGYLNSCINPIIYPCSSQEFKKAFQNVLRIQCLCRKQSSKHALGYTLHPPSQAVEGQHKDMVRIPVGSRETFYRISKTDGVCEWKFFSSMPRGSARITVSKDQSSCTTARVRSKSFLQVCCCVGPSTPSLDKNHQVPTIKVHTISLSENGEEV

[7] = target: 5-HT2A receptor (Homo sapiens, UniProt P28223); test: pKi for 5HT2A receptor (Table 1); assay type: binding
Sequence of 5-HT2A receptor (P28223 whole entry): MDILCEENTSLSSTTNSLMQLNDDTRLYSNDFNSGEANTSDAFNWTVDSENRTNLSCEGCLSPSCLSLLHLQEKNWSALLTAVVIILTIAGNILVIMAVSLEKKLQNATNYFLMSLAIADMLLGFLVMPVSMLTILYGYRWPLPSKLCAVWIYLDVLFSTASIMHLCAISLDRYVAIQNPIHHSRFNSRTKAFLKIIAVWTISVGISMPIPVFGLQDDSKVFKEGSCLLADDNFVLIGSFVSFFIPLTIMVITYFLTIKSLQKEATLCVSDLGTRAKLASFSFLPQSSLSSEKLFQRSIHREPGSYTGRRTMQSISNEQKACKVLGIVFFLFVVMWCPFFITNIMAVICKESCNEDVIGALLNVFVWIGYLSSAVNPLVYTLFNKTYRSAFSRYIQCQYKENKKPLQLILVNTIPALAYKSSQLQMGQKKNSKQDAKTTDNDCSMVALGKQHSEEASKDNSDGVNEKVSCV

[8] = target: T5, adrenergic receptor Alpha 2A (Homo sapiens, UniProt P08913); test: pKi for adrenergic receptor Alpha2A (Table 1); assay type: binding
T5 sequence (P08913 1-465): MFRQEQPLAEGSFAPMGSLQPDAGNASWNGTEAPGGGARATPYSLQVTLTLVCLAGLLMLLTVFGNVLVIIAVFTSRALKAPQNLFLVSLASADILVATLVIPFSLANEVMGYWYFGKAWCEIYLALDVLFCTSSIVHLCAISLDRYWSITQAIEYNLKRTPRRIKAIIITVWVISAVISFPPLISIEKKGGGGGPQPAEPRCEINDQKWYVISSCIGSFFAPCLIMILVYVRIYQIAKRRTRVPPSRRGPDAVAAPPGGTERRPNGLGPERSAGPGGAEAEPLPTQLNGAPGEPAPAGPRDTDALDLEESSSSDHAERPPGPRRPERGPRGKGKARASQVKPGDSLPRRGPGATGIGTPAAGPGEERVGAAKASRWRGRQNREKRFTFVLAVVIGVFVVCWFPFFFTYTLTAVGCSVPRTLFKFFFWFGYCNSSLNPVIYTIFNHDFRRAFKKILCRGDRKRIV

[9] = target: 5-HT1D receptor (Homo sapiens, UniProt P28221); test: pKi for 5HT1D receptor (Table 1); assay type: binding
Sequence of 5-HT1D receptor (P28221 whole entry): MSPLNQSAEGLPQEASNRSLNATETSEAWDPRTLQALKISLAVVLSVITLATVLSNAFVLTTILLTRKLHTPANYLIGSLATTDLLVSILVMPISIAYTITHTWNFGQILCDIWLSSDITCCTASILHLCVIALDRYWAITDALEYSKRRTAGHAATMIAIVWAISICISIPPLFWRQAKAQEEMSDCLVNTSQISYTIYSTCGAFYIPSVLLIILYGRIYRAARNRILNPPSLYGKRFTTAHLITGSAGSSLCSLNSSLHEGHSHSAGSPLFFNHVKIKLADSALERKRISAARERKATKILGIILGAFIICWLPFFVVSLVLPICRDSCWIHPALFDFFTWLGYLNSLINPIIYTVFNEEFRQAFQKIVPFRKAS

[10] = target: 5-HT1B receptor (Homo sapiens, UniProt P28222); test: pKi for 5HT1B receptor (Table 1); assay type: binding
Sequence of 5-HT1B receptor (P28222 whole entry): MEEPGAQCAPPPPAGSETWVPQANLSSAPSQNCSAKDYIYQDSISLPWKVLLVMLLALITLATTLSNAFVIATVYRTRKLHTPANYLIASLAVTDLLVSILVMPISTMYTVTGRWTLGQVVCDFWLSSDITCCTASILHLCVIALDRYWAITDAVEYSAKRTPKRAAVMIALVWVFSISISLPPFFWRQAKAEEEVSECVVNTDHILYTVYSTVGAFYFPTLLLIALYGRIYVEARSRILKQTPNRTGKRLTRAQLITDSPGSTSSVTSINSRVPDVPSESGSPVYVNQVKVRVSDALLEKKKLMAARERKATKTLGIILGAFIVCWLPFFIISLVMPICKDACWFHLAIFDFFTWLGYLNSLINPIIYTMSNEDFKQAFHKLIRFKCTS

[11] = target: 5-HT2B receptor (Homo sapiens, UniProt P41595); test: pKi for 5HT2B receptor (Table 1); assay type: binding
Sequence of 5-HT2B receptor (P41595 whole entry): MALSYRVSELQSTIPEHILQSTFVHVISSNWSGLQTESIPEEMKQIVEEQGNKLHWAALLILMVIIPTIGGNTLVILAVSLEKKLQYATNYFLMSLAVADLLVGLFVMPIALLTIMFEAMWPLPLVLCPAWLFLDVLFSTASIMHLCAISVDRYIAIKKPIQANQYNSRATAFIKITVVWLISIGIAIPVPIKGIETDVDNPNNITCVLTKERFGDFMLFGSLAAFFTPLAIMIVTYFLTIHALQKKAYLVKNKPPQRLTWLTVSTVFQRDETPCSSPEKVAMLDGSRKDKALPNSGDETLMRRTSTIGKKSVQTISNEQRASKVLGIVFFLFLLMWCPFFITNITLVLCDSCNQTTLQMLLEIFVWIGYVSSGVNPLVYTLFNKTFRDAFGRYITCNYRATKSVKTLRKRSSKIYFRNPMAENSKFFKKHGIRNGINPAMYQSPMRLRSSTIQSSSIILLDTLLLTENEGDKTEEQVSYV

[12] = target: other dopamine receptors; test: pKi towards other dopamine receptors; assay type: binding; conditions: dopamine receptors other than D4
[13] = target: other 5HT receptors; test: pKi towards other 5HT receptors; assay type: binding; conditions: 5HT receptors other than 5-HT2A
[14] = system: patients with treatment refractory major depression; test: Semi-naturalistic open label study of low dose pipamperone in treatment refractory major depression; assay type: in vivo, human
[15] = target: adrenergic receptor Alpha 2B (Homo sapiens, UniProt P18089); test: pKi for adrenergic receptor Alpha2B (Table 1); assay type: binding
Sequence of adrenergic receptor Alpha 2B (P18089 whole entry): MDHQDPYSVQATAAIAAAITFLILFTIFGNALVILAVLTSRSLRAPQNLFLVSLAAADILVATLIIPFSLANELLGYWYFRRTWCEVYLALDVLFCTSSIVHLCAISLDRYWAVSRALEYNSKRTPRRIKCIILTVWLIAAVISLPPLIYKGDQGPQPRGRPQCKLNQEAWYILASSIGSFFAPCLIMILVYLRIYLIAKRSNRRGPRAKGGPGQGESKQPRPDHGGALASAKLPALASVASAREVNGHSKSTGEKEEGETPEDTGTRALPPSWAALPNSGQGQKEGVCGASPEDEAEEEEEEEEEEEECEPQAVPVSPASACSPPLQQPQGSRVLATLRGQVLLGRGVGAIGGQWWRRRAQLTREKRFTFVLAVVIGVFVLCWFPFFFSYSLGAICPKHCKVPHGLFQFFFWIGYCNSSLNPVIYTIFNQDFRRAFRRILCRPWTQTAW

[16] = target: 5-HT6 (rat) receptor (Rattus norvegicus, UniProt P31388); test: pKi for 5HT6 rat receptor (Table 1); assay type: binding
Sequence of 5-HT6 (rat) receptor (P31388 whole entry): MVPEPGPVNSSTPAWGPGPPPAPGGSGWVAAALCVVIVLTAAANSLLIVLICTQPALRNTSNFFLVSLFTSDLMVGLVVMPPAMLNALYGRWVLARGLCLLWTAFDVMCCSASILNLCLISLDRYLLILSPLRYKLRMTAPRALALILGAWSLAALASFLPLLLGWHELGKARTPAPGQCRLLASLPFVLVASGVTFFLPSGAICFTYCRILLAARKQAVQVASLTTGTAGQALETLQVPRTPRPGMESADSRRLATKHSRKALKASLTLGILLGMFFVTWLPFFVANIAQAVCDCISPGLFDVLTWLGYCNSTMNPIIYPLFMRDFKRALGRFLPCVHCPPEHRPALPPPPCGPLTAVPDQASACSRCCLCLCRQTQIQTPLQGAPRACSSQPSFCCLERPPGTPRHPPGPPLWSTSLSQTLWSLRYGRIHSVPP

[17] = target: 5-HT7 (rat) receptor (Rattus norvegicus, UniProt P32305); test: pKi for 5HT7 rat receptor (Table 1); assay type: binding
Sequence of 5-HT7 (rat) receptor (P32305 whole entry): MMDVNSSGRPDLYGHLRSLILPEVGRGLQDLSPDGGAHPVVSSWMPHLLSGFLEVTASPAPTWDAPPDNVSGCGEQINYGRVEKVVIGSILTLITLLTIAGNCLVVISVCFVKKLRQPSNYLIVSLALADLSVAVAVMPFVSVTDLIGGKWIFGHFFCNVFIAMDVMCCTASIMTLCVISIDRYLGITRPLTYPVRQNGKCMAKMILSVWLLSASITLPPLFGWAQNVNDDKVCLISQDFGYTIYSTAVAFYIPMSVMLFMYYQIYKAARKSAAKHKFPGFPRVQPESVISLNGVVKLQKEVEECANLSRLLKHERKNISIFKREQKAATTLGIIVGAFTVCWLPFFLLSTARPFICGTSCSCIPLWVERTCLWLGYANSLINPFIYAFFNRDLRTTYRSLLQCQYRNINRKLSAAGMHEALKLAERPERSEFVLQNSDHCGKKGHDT

[18] = target: adrenergic receptor Beta 1 (Homo sapiens, UniProt P08588); test: pKi for adrenergic receptor Beta1 (Table 1); assay type: binding
[19] = target: adrenergic receptor Alpha 2C (Homo sapiens, UniProt P18825); test: pKi for adrenergic receptor Alpha2C (Table 1); assay type: binding
[20] = target: D2 dopamine receptor (Homo sapiens, UniProt P14416); test: pKi for dopamine receptor D2 (Table 1); assay type: binding
Sequence of D2 dopamine receptor (P14416 whole entry): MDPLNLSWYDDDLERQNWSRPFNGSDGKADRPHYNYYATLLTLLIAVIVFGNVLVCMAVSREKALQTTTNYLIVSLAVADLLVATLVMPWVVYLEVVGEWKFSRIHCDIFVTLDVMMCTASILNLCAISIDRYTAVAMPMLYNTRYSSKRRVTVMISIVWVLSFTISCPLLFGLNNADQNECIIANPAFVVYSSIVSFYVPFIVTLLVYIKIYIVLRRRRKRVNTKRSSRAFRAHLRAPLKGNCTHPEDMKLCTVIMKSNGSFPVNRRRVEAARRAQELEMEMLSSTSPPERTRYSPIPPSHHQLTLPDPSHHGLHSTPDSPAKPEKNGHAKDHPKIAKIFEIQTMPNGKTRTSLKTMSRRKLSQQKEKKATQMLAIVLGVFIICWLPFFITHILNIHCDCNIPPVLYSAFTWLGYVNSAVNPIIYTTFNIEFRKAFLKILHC

[21] = target: adrenergic receptor Beta 2 (Homo sapiens, UniProt P07550); test: pKi for adrenergic receptor Beta2 (Table 1); assay type: binding
Sequence of adrenergic receptor Beta 2 (P07550 whole entry): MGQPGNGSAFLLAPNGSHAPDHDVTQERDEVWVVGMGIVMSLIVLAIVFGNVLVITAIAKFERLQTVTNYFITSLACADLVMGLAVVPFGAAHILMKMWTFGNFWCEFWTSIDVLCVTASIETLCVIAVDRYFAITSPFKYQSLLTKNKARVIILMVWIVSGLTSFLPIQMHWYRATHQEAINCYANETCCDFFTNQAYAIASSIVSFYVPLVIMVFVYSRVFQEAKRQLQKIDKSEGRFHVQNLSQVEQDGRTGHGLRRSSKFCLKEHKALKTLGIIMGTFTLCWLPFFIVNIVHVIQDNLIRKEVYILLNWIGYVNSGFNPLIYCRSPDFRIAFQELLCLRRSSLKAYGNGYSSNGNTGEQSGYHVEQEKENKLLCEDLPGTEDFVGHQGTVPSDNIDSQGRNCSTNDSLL

[22] = target: 5-HT1E receptor (Homo sapiens, UniProt P28566); test: pKi for 5HT1E receptor (Table 1); assay type: binding
[23] = system: patients; conditions: clinical trials; cited from earlier work

Sequence of D1 dopamine receptor (P21728 whole entry): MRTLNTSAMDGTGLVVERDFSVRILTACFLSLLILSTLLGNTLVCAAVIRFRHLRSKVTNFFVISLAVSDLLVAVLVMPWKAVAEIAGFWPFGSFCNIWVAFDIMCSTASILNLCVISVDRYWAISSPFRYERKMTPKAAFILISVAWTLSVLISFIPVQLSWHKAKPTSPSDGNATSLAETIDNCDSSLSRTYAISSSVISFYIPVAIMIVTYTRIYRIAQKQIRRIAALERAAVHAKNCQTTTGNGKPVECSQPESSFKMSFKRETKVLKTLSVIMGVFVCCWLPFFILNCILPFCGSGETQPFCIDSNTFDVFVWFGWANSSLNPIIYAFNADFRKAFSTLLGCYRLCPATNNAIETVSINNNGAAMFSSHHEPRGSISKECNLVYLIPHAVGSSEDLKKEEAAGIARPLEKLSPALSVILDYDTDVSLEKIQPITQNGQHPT
Sequence of D3 dopamine receptor (P35462 whole entry): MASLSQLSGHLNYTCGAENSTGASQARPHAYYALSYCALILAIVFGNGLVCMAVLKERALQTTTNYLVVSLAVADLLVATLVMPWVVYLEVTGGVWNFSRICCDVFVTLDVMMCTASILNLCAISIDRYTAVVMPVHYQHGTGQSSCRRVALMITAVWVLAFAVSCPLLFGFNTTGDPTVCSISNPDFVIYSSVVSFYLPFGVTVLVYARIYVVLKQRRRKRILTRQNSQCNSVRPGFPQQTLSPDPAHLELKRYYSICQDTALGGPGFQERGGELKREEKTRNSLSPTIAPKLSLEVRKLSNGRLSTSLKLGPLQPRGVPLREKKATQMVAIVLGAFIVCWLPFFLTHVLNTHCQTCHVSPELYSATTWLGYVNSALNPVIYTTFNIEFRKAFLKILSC

pKi D3 [1]	pKi D4 [3]	pKi 5HT1A [4]	pKi 5HT2C [5]	pKi Alpha1A [6]	pKi 5HT2A [7]	pKi Alpha2A [8]	SMILES	further results
							CCNC(=O)N1CCN(CCCC(c2ccc(F)cc2)c2ccc(F)cc2)CC1 [Amperozide]	Ki [3]: > 1000 nM
							Fc1cccc2c1O[C@H]1CNC[C@@H]1O2 [Fluparoxan]	Ki [7]: > 1000 nM
7-8	6-7					<6	OC1(c2ccc(Cl)cc2)CCN(Cc2c[nH]c3ccccc23)CC1 [L741626]	pKi 5HT1D [9]: <6; pKi 5HT1B [10]: <6; pKi 5HT2B [11]: 6-7
							NC(=O)C1(N2CCCCC2)CCN(CCCC(=O)c2ccc(F)cc2)CC1 [Pipamperone, 1′-[3-(p-Fluorobenzoyl)propyl]-[1,4′-bipiperidine]-4′-carboxamide]	pKi towards other dopamine receptors [12]: less than 8; Ki [3]: ≤ 10 nM; pKi towards other 5HT receptors [13]: less than 8; tolerability in patients with depression ([14]; 1-20 mg/day PO, 8 weeks): generally well tolerated; anti-depressant effect on treatment refractory patients ([14]; 1-20 mg/day PO, 8 weeks, refractory towards SSRIs): apparent; sedative effects ([14]; doses used in the study (1-20 mg/day), observed at higher doses): lacking; anti-depressant effect ([14]; extremely unconventional low dose, 1-20 mg/day PO, 8 weeks, open label): apparent
7-8	7-8	8-9	7-8	8-9	>9	6-7	O=C(CC1CCN(CCOc2cccc3c2OCCO3)C1)c1ccc(F)cc1 (centres unmarked) [S16924]	pKi Alpha2B [15]: 7-8; pKi 5HT6rat [16]: 7-8; pKi 5HT7rat [17]: 7-8; pKi Beta1 [18]: <6; pKi Alpha2C [19]: 6-7; pKi D2 [20]: 7-8; pKi Beta2 [21]: <6; pKi 5HT2B [11]: 8-9
6-7	8-9	7-8	6-7	>9	8-9	6-7	O=C1N(CCN2CCC(c3noc4cc(F)ccc34)CC2)CCN1c1ccccc1 [S18327]	pKi D1 [2]: 7-8; pKi D2 [20]: 7-8
>9	<6	<6	7-8	6-7	6-7	<6	N#Cc1ccc2c(c1)[C@H]1CN(CCCCNC(=O)c3ccc(-c4ccccc4)cc3)C[C@@H]1CO2 [S33084]	pKi 5HT1D [9]: 6-7; pKi D1 [2]: 6-7; pKi 5HT1B [10]: 6-7; pKi D2 [20]: 7-8; pKi 5HT2B [11]: 6-7
							OCCOCCN1CCN(C2=Nc3ccccc3Sc3ccccc32)CC1 [Seroquel]	Ki [22]: > 1000 nM
							CN(C)CCOC1=Cc2ccccc2Sc2ccc(Cl)cc21 [Zotepine]	Ki [3]: 10 to 100 nM
							CN(C)CCCC1(c2ccc(F)cc2)OCc2cc(C#N)ccc21 (centres unmarked) [citalopram]	patients reporting one or more of the listed side effects [23]: over 10%

SMILES	pKi D3 [1]	pKi D4 [3]	pKi 5HT1A [4]	pKi 5HT2C [5]	pKi Alpha1A [6]	pKi 5HT2A [7]	pKi Alpha2A [8]	further results
CCN1CCC[C@H]1CNC(=O)c1c(O)c(Cl)cc(Cl)c1OC (racemic) [Raciopride]	8-9	<6	<6	<6	<6	6-7	<6	pKi D1 [2]: <6
